Data as given in patent US9782379B2, “Use of protectin DX for the stimulation of muscular IL-6 secretion” (Universite Laval, priority 2013, dated 2017).

How the values were obtained:
C2C12 myotubes = test: IL-6 expression and release and AMPK phosphorylation in cultured C2C12 myotubes; type: cell-based; settings: 100 nM of each lipid mediator vs vehicle
Experimental: C2C12 myoblasts were maintained in DMEM containing 10% FBS. Differentiation to myotubes was initiated by addition of DMEM containing 2% horse serum. The experiment was conducted 5 days after the addition of the differentiation media. Immediately prior to the commencement of experiments fresh media was added to the cells. Then vehicle or PDX (10, 100, and 1000 nM) was added to the appropriate wells. 30 and 120 minutes after the addition of PDX media was collected and frozen for IL-6 quantification and cells were washed in ice cold PBS. For extraction of mRNA cells were then lysed and scraped in 300 μl of RLT buffer (QIAGEN). For examination of AMPK activity cells were lysed and scraped in 200 μl of ice cold lysis buffer containing 50 mM HEPES pH7.5, 150 mM NaCl, 1 mM EGTA, 20 mM b-glycerophosphate, 1% NP40, 10 mM NaF, 2 mM Na3VO4, 1× protease inhibitor cocktail (Sigma).
Snap frozen gastrocnemius muscle and liver from mice were pulverized in liquid nitrogen then lysed overnight at 4° C. in the lysis buffer described for the C2C12 myotube experiments. Immunoblotting of myotube, macrophage, liver and muscle lysates was then performed as previously described^5. Briefly, 50 ug of protein was loaded onto a 7.5% acrylamide gel, subjected to SDS-PAGE then transferred onto nitrocellulose membranes. Membranes were then blocked and probed with the appropriate antibodies. Antibodies for p-Akt ser473, p-JNK thr183/tyr185, JNK, p-AMPK thr172, AMPK, p-STAT-3 ser727 and STAT-3 were obtained from Cell Signaling Technology (MA, USA). Antibodies for total Akt and iNOS were from Santa Cruz Biotechnology (CA, USA) and BD Transduction Laboratories™ (Canada) respectively.
RNA was extracted from C2C12 myotubes using an RNeasy® mini kit from QIAGEN. RNA from homogenized liver tissue was extracted using an RNeasy® fibrous tissue mini kit from QIAGEN. RNA was then reverse transcribed to cDNA using the high-capacity cDNA reverse transcription kit from applied biosystems. Real-time PCR for Ppargc1, Pck1, G6Pc, and GAPDH was then performed using Taqman assay on demand probes and primers from Applied Biosystems in a CFX96 real-time system from BIO-RAD. The relative expression of genes of interest was then determined by normalization to the housekeeping gene GAPDH using the comparative CT method for relative gene expression^30.
Chemokines and cytokines were quantified in macrophage media, or mouse plasma using the MILLIPLEX™ MAP mouse cytokine/chemokine kit (Millipore Corporation, MA, USA). Nitrite accumulation in media was determined by Greiss assay as previously described^25. Plasma insulin levels were assessed by RIA (Linco, MI, USA). FFA were measured using an enzymatic colorimetric assay (Wako Chemicals, VA, USA). Skeletal muscle and liver IL-6 were quantified using the mouse IL-6 ELISA kit from R&D systems. Total plasma adiponectin was determined using the ELISA from ALPCO.

T37i brown adipocytes = test: IL-6 release from cultured brown adipocytes; type: cell-based; settings: norepinephrine 1 μM as adrenergic stimulus
Text: Since brown adipose tissue was recently shown to regulate glucose homeostasis via secretion of IL-6^20 we also examined whether PDX might raise circulating IL-6 by stimulating brown fat.

## CC/C=C\C[C@H](O)\C=C/C=C/C=C/[C@H](O)C/C=C\C/C=C\CCC(=O)O [PD1, 10R,17S-dihydroxy-docosa-4Z,7Z,11E,13E,15Z,19Z-hexaenoic acid, reference compound]
C2C12 myotubes
  IL-6 release from muscle cells: not present

## CC/C=C\CC(O)/C=C/C=C\C=C\C=C\C(O)[C@@H](O)C/C=C\CCC(=O)O (stereo partly drawn) [RvD1, 7S,8R,17S-trihydroxy-4Z,9E,11E,13Z,15E,19Z-docosahexaenoic acid, reference compound]
C2C12 myotubes
  IL-6 release from muscle cells: not present

## CCCCCC(O)/C=C/C=C\C=C\[C@@H](O)C/C=C\CCCC(=O)O (stereo partly drawn) [8(S),17(S)DiHETE, 8S,15S-dihydroxy-5Z,9E,11Z,13E-eicosatetraenoic acid, reference compound]
C2C12 myotubes
  IL-6 release from muscle cells: not present

## NC[C@H](O)c1ccc(O)c(O)c1 [norepinephrine, reference compound]
T37i brown adipocytes
  release of IL-6: released IL-6
